Laboratory results from ChEMBL document CHEMBL5625209, “Rational design and optimization of acylthioureas as novel potent influenza virus non-nucleoside polymerase inhibitors” (Eur J Med Chem, 2023).
Activity calls are given as the source filed them. The calls are words filed in the database; no cut-off is given here.

Legend:
Influenza A virus [1] = assay: Antiviral activity against Influenza A virus H1N1 (A/Puerto Rico/8/34) infected in MDCK cells assessed as reduction in NP protein level at 10 uM in presence of rGTP by Western blot analysis; assay type: functional, organism-based
Influenza A virus [2] = assay: Antiviral activity against Influenza A virus H1N1 (A/Puerto Rico/8/34) infected in MDCK cells assessed as reduction in NP protein level at 10 uM in presence of 125 uM rNTP by Western blot analysis; assay type: functional, organism-based
Influenza A virus [3] = assay: Antiviral activity against Influenza A virus H1N1 (A/Puerto Rico/8/34) infected in MDCK cells assessed as reduction in NP protein level at 10 uM in presence of rATP by Western blot analysis; assay type: functional, organism-based
Influenza A virus [4] = assay: Antiviral activity against Influenza A virus H1N1 (A/Puerto Rico/8/34) infected in MDCK cells assessed as reduction in NP protein level at 1 uM in presence of 1000 uM rNTP by Western blot analysis; assay type: functional, organism-based
Influenza A virus [5] = assay: Inhibition of Influenza A virus RdRp activity assessed as reduction in Fluc/Rluc ratio at 0.1 to 10 uM; details: dose 0.1-10 µM
Influenza A virus [6] = assay: Antiviral activity against Influenza A virus H1N1 (A/Puerto Rico/8/34) infected in MDCK cells assessed as reduction in virus-induced cytopathic effect incubated for 48 hrs by CCK8 assay; assay type: functional, organism-based
[7] = Metabolic stability in human liver microsomes assessed as half life preincubated for 5 mins followed by NADPH addition and measured upto 45 mins by LC-MS analysis; assay type: ADME, Microsome; details: time < 50 min
[8] = Metabolic stability in dog liver microsomes assessed as intrinsic clearance preincubated for 5 mins followed by NADPH addition and measured upto 45 mins by LC-MS analysis; assay type: ADME, Canis lupus familiaris, Microsome; details: time < 50 min, read-out: CLH
[9] = Metabolic stability in dog liver microsomes assessed as half life preincubated for 5 mins followed by NADPH addition and measured upto 45 mins by LC-MS analysis; assay type: ADME, Canis lupus familiaris, Microsome; details: time < 50 min
[10] = Metabolic stability in human liver microsomes assessed as intrinsic clearance preincubated for 5 mins followed by NADPH addition and measured upto 45 mins by LC-MS analysis; assay type: ADME, Microsome; details: time < 50 min, read-out: CLH
[11] = Metabolic stability in dog liver microsomes assessed as hepatic extraction ratio preincubated for 5 mins followed by NADPH addition and measured upto 45 mins by LC-MS analysis; assay type: ADME, Canis lupus familiaris, Microsome; details: time < 50 min
[12] = Metabolic stability in human liver microsomes assessed as hepatic extraction ratio preincubated for 5 mins followed by NADPH addition and measured upto 45 mins by LC-MS analysis; assay type: ADME, Microsome; details: time < 50 min
[13] = Metabolic stability in mouse liver microsomes assessed as hepatic extraction ratio preincubated for 5 mins followed by NADPH addition and measured upto 45 mins by LC-MS analysis; assay type: ADME, Microsome; details: time < 50 min
[14] = Metabolic stability in dog liver microsomes assessed as hepatic clearance preincubated for 5 mins followed by NADPH addition and measured upto 45 mins by LC-MS analysis; assay type: ADME, Canis lupus familiaris, Microsome; details: time < 50 min
[15] = Metabolic stability in mouse liver microsomes assessed as intrinsic clearance preincubated for 5 mins followed by NADPH addition and measured upto 45 mins by LC-MS analysis; assay type: ADME, Microsome; details: time < 50 min, read-out: CLH
[16] = Metabolic stability in human liver microsomes assessed as hepatic clearance preincubated for 5 mins followed by NADPH addition and measured upto 45 mins by LC-MS analysis; assay type: ADME, Microsome; details: time < 50 min
[17] = Metabolic stability in mouse liver microsomes assessed as hepatic clearance preincubated for 5 mins followed by NADPH addition and measured upto 45 mins by LC-MS analysis; assay type: ADME, Microsome; details: time < 50 min
[18] = Metabolic stability in mouse liver microsomes assessed as half life preincubated for 5 mins followed by NADPH addition and measured upto 45 mins by LC-MS analysis; assay type: ADME, Microsome; details: time < 50 min

## NC(=O)c1ncn([C@@H]2O[C@H](CO)[C@@H](O)[C@H]2O)n1
Influenza A virus [1]
  Activity: inactive
Influenza A virus [2]
  Activity: Active
Influenza A virus [3]
  Activity: inactive

## CC(=O)N[C@H]1[C@H]([C@H](O)[C@H](O)CO)OC(C(=O)O)=C[C@@H]1NC(=N)N [ZANAMIVIR]
Influenza A virus [4]
  Activity: Active
Influenza A virus [5]
  inhibition: inactive
Influenza A virus [6]
  EC50: 65 nM

## O=C(c1ccc(F)cc1)C1CCN(CCn2c(=O)[nH]c3ccccc3c2=O)CC1 [KETANSERIN]
[7]
  half-life: 37.2 min
[8]
  CLint scaled: 71.2 mL/min/kg
[9]
  half-life: 48.5 min
[10]
  CLint scaled: 46.7 mL/min/kg
[11]
  hepatic extraction ratio at 0.75 h: 69.7%
[12]
  hepatic extraction ratio at 0.75 h: 69.3%
[13]
  hepatic extraction ratio at 0.75 h: 76.5%
[14]
  CLhep predicted: 21.6 mL/min/kg
[15]
  CLint scaled: 293 mL/min/kg
[16]
  CLhep predicted: 14.3 mL/min/kg
[17]
  CLhep predicted: 68.8 mL/min/kg
[18]
  half-life: 18.6 min
